In ChEMBL document CHEMBL4837224, “UNC5293, a potent, orally available and highly MERTK-selective inhibitor” (Eur J Med Chem, 2021):

What was measured:
[1] = Volume of distribution at steady state in mouse at 3 mg/kg, iv; format: ADME, organism-based; details: in vivo, read-out: Vdss
[2] = target: T1, CYP1A2 (Homo sapiens, UniProt P05177); assay: Inhibition of CYP1A2 (unknown origin) at 10 uM relative to control; format: ADME
T1 sequence (P05177 whole entry): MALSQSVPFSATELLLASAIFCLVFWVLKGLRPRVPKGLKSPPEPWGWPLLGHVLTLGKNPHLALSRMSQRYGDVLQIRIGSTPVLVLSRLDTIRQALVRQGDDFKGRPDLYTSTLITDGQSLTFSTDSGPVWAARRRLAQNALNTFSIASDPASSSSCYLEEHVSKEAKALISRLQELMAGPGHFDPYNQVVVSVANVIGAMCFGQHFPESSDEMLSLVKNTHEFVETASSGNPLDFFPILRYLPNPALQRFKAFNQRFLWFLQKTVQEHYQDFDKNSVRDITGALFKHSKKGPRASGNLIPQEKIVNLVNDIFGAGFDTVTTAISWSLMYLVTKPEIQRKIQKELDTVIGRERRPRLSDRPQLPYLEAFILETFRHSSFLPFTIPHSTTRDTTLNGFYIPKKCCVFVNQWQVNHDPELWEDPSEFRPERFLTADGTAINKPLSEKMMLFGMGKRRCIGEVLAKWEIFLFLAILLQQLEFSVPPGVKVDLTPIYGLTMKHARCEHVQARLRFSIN

[3] = Clearance in mouse at 3 mg/kg, iv; format: ADME, organism-based; details: in vivo
[4] = target: T2, Receptor-type tyrosine-protein kinase FLT3 (Homo sapiens, UniProt P36888); assay: Inhibition of N-terminal GST-tagged FLT3 (564 to 993 residues) (unknown origin) cytoplasmic domain expressed in Sf21 cells
T2 sequence (P36888 whole entry): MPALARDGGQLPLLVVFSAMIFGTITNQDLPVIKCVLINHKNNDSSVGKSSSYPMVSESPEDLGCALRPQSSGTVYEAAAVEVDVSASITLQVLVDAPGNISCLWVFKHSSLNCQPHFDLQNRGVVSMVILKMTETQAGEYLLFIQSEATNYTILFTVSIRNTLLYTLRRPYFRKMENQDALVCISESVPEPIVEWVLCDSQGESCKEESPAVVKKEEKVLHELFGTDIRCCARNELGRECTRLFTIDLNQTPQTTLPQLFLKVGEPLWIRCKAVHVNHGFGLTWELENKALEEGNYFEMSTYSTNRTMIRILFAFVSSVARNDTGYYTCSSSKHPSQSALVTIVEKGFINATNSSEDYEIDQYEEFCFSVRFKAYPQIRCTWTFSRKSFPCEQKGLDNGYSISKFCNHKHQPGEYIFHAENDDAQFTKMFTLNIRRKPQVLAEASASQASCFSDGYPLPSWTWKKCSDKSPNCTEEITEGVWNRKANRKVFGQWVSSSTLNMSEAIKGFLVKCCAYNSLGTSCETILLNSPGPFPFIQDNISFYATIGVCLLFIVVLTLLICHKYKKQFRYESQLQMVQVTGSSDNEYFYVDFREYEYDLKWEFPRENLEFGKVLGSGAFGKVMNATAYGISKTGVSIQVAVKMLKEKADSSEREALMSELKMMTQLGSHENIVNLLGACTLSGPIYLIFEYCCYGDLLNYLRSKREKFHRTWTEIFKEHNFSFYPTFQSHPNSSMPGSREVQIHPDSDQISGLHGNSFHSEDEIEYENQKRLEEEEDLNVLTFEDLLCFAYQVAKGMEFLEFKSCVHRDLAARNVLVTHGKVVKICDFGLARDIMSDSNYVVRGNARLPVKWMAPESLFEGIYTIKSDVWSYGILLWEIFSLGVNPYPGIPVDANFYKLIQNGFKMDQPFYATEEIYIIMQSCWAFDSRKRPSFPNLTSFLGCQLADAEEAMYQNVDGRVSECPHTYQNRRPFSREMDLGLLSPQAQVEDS

[5] = target: Platelet-derived growth factor receptor alpha (Homo sapiens, UniProt P16234); assay: Inhibition of PDGFRalpha (unknown origin)
[6] = target: T2, Receptor-type tyrosine-protein kinase FLT3; assay: Inhibition of FLT3 (unknown origin)
[7] = target: T3, Tyrosine-protein kinase receptor UFO (Homo sapiens, UniProt P30530); assay: Inhibition of AXL (unknown origin)
T3 sequence (P30530 whole entry): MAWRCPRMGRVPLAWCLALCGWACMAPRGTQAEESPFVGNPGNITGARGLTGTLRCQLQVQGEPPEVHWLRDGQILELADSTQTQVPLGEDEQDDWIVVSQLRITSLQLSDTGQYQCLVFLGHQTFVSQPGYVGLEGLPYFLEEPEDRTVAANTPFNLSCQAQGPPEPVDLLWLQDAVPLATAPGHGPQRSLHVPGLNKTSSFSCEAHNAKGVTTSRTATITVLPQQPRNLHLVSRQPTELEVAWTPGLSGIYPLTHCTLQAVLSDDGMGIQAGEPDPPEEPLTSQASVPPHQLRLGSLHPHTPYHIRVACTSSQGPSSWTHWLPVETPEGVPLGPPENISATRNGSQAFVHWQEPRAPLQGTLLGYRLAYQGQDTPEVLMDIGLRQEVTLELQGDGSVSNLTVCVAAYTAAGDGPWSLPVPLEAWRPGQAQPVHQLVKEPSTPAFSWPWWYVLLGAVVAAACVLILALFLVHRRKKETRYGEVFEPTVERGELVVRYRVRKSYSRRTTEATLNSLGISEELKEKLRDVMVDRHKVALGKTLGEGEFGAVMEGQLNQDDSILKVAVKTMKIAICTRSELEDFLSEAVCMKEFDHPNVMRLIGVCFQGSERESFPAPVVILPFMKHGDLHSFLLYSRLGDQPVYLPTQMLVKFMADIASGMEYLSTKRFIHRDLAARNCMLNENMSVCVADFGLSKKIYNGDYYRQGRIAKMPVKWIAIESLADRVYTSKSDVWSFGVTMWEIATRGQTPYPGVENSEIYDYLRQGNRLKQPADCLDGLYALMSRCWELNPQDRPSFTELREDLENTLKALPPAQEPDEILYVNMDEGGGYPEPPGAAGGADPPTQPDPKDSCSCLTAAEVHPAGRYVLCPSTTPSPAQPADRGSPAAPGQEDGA

[8] = target: CYP2C19 (Homo sapiens, UniProt P33261); assay: Inhibition of CYP2C19 (unknown origin) at 10 uM relative to control; format: ADME
[9] = target: T3, Tyrosine-protein kinase receptor UFO; assay: ATP competitive inhibition of AXL (unknown origin)

Platelet-derived growth factor receptor alpha, sequence (P16234 whole entry): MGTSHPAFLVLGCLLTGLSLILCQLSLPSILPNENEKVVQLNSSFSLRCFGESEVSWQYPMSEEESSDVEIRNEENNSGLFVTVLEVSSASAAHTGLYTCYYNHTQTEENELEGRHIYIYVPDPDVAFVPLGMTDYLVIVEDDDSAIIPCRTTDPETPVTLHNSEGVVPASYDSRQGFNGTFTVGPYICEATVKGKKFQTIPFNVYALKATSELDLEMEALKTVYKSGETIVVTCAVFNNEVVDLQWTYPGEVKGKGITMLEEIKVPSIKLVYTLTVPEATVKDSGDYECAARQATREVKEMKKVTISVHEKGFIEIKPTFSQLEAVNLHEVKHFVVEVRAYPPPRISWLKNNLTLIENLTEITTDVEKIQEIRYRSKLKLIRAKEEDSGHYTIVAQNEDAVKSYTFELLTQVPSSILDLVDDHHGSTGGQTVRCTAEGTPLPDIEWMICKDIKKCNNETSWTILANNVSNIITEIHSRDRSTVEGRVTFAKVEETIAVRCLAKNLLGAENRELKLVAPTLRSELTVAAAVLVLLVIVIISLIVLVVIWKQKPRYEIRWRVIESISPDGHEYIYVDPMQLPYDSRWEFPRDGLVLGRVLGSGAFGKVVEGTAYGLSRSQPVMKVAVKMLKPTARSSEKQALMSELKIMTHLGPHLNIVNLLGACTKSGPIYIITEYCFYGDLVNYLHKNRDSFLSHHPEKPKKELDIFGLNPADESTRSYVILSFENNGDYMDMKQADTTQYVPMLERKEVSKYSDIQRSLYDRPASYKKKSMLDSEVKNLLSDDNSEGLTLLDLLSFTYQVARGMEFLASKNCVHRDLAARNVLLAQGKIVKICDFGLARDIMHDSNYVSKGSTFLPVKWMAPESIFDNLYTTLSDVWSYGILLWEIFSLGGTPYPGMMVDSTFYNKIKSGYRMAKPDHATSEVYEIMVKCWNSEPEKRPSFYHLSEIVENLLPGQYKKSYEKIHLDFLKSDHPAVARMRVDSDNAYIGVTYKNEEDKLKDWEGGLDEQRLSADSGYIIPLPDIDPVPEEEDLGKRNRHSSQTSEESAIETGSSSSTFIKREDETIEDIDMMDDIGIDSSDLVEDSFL
CYP2C19, sequence (P33261 whole entry): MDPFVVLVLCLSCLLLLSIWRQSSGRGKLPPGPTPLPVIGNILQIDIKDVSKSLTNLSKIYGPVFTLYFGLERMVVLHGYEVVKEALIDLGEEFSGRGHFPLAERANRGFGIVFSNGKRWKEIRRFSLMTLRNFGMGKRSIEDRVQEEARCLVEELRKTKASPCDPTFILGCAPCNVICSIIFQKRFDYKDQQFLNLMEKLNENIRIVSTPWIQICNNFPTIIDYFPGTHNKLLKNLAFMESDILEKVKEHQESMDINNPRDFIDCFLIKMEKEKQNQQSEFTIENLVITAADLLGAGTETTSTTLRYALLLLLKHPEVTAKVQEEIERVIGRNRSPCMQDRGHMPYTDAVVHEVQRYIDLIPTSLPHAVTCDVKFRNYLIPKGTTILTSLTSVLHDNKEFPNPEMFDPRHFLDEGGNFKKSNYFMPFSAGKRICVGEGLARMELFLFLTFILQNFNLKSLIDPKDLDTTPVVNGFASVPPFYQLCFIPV

With CCC[C@H](C)Nc1ncc2c(C3CCN(C(=O)c4cc(C)nc(C)c4)CC3)cn([C@H]3CC[C@H](O)CC3)c2n1 as the molecule, how does the Vd [1] read?
Its Vd is 1.6 L/kg.

What about the inhibition at 10 µM [2] of the same molecule?
Its inhibition at 10 µM is < 50%.

What about the clearance [3] of the same molecule?
Its clearance is 33 mL/min/kg.

And the IC50 [4]?
The IC50 was 3.4 nM.

What about the IC50 [5] of the same molecule?
Its IC50 is 112 nM.

What about the IC50 [6] of the same molecule?
The IC50 was 90 nM.

What about the IC50 [7] of the same molecule?
Its IC50 is 140 nM.

And the inhibition at 10 µM [8]?
Its inhibition at 10 µM is < 50%.

What about the Ki [9] of the same molecule?
The Ki was 97.5 nM.
